The record followed here is a melting point compilation (Tetko et al.).

With `COC(=O)CCC(C)C1CCC2C3CCC4CCCCC4(C)C3CC(=O)C12C` (stereo unspecified), the melting point came to 109 °C.

`Cc1c(C(=O)O)nnn1Cc1ccc(Br)cc1` gave a melting point of 192 to 193 °C. The value for `CCN(CC)S(=O)(=O)c1ccc(C(=O)O)cc1` was 193 °C; that for `COC(=O)C=Cc1ccc(Cl)cc1` was 76 °C; that for `COc1cc(OC)nc(NC(=O)NS(=O)(=O)c2c(-c3nnn(C)n3)cnn2C)n1` was 170 °C. `CCOC(=O)Oc1c(OC)cc(C(=O)O)cc1OC` came in with a melting point of 180 to 185 °C. The value for `CC(C)(c1cc(Br)c(OCCO)c(Br)c1)c1cc(Br)c(OCCO)c(Br)c1` was 108 to 114 °C; that for `CC12C=CC=CC1NC(=C1C(=O)c3ccccc3C1=O)C=C2` (stereo unspecified) was 203 °C. In the case of `O=P(c1ccccc1)(c1ccccc1)C1C=COC2=C1CCCC2` (stereo unspecified), the melting point lay in the range of 176 to 177 °C. Under `CC12CCC3C(CCC45OC4C(=O)C=CC35O)C1CCC2=O` (stereo unspecified) stands 201 to 203 °C; under `O=Cc1cccc(N2CCOCC2)c1`, 68 to 70 °C. As to `CC(=O)CCc1oc2c(I)cc(I)cc2c1-c1ccc(C)o1`, the melting point is 192 °C.

`O=C(O)Cc1ccc([N+](=O)[O-])cc1[N+](=O)[O-]`: the melting point came to 180 °C. In turn, `Nc1cccnc1[N+](=O)[O-]` yielded a melting point of 194 to 196 °C. For `C[C@H](O)C(=O)O`, the melting point is 53 °C.

`CC(=O)Nc1ccccc1/C=C\c1ccccc1` gave a melting point of 115 to 117 °C. Under `O=C(c1ccccc1)c1nn2c(C(F)(F)F)nnc2s1` stands 157 °C; under `COc1ccc2c(CCN)c[nH]c2c1`, 143 to 146 °C; under `Cc1cc(C(=O)NN)[nH]n1`, 157 to 158 °C. In the case of `CCC1CN2CCc3c([nH]c4cccc(OC)c34)C2CC1C(=COC)C(=O)OC` (stereo unspecified), the melting point was found to be 104 °C. Take `CCCCCCCCC1CCCC1`: the melting point is -44 °C. For the molecule `COc1cc(CCl)ccc1OCc1ccccc1`, the melting point worked out at 73 °C.

In turn, `CN1CCC(=O)NC1=O` displayed a melting point of 171 °C. With `CCCCCCCCOC(=O)CCCC`, the melting point was -42.3 °C.

With `COc1ccc2nc(Cl)c(CO)cc2c1`, the melting point turned out to be 133 °C. Molecule `COc1ccc(CCN2CC(C(=O)O)CC2=O)cc1OC` (stereo unspecified) returned a melting point of 127 to 131 °C. Under `CC(=O)OC1CCC2C3CCC4CC(C(C)=O)=CCC4(C)C3CCC12C` (stereo unspecified) stands 115 to 140 °C; under `O=C1Nc2ccc(Br)cc2C1=O`, 251 to 253 °C; under `COc1ccc2c3c1OC1C(O)C=CC4C(C2)[N+](C)([O-])CCC341` (stereo unspecified), 232 °C. `CO[Si](OC)(OC)c1ccccc1` came in with a melting point of -25 °C. Under `COc1cc([C@@H](O)[C@H](CO)Oc2c(OC)cccc2OC)cc(OC)c1O` stands 217 °C. For `NC(=O)NCc1ccc(F)cc1`, the melting point lay in the range of 172 to 175 °C. Under `CCOC(=O)NC(=S)Nc1sc2c(c1C(=O)OCC)CCCC2` stands 187 to 190 °C; under `C1CCSCC1`, 19 °C. Under `CC(CC(C(N)=O)(c1ccccc1)c1ccccn1)N(C)C` (stereo unspecified) stands 156 °C. The value for `COc1cc(N)ncn1` was 100 °C; that for `Oc1cc(O)nc(S)n1` was 240 to 255 °C; that for `COc1cc(OC)c2c(=O)c(=O)c2c1` was 149 °C.

With `CCCCCCCCc1ccc(NC(=O)c2ccc(OC)cc2)cc1`, the melting point was 132 °C.

On to `COC(=O)C=C(C)OP(=O)(OC)OC`, for which the melting point is 21 °C. `Nc1ncnc(Nc2ccc(Cl)cc2)n1` had a melting point of 233 °C. `CSC(S)=Nc1ccc(N)cc1`: the melting point was 188 to 190 °C. As for `Nc1cc(Br)cc2cc[nH]c12`, the melting point turned out to be 105 °C. `O=[N+]([O-])c1ccccc1OCCN1CCOCC1` showed a melting point of 44 to 45 °C.

Consider `COc1cc(C)c(S(=O)(=O)Cl)c(C)c1C`, for which the melting point stood at 58 °C. In turn, `CC(C)(C)OC(=O)NC(Cc1ccc(OCc2ccccc2)cc1)C(=O)O` (stereo unspecified) yielded a melting point of 109 °C. `OCC1OC(Oc2ccc3cc(Br)ccc3c2)C(O)C(O)C1O` (stereo unspecified) yielded a melting point of 218 to 220 °C. Under `C1COCCOCCNCCOCCOCCN1` stands 111 to 115 °C. In turn, `CCCC(C)(O)CCC` yielded a melting point of -82 °C. Turning to `O=C=Nc1ccc(Br)cc1Cl`, the melting point was in the range of 71 to 75 °C. Regarding `O=C(O)c1cc(Br)ccc1O`, the melting point stood at 170 °C. `Fc1c(F)c(F)c(P(c2ccccc2)c2ccccc2)c(F)c1F` showed a melting point of 71 °C. Take `Cc1nn(-c2cc(NS(C)(=O)=O)c(Cl)cc2Cl)c(=O)n1C(F)F`: the melting point was 122 °C. Under `COC(=O)c1cccc([N+](=O)[O-])c1NC(C)=O` stands 120 to 121 °C; under `c1ccc(NNc2ccccc2)cc1`, 131 °C; under `Cc1nc2cc(C)c(C)cc2s1`, 84 °C. Under `Clc1ccc(-c2nc3c4ccccc4ccn3n2)cc1` stands 238 °C; under `NN(c1ccccc1)c1ccccc1`, 50.5 °C; under `CC12CC(=O)C3C(CCC4=CC(=O)CCC43C)C1CCC2=O` (stereo unspecified), 222 °C. The value for `C/C(=C\C(=O)c1ccc(F)cc1)c1ccc(F)cc1` was 51 °C; that for `CN(C)CCc1c[nH]c2ccc(Cn3cncn3)cc12` was 179 °C; that for `NC1(P(=O)(O)O)CCCC1` was 274 to 276 °C. Regarding `Oc1ccc2c3c1OC1C(O)C=CC4C(C2)NCCC341` (stereo unspecified), the melting point was 273 °C.

The molecule `CC(C)(c1ccc(OCC2CO2)cc1)c1ccc(OCC2CO2)cc1` (stereo unspecified) displayed a melting point of 10 °C.

For `Cc1nc(-c2ccc(CO)cc2)cs1`, the melting point is 71 to 74 °C. Take `O=C(OCC1CCC2OC2C1)C1CCC2OC2C1` (stereo unspecified): the melting point was -37 °C. With `O=C1C=CC(=O)N1c1cccc(N2C(=O)C=CC2=O)c1`, the melting point is 198 to 204 °C. Regarding `N#CCC(=O)c1ccc(Cl)c(Cl)c1`, the melting point amounted to 116 °C.

In turn, `CNCc1ccc(-c2ccsc2)cc1` yielded a melting point of 68 to 69 °C.

On to `O=C1OC(OC(=O)C(F)(F)F)c2ccccc21` (stereo unspecified), for which the melting point turned out to be 58 °C. Regarding `Clc1nc[nH]c1Cl`, the melting point is 185 to 186 °C. Molecule `NC(=O)c1cccc(CCl)c1` came in with a melting point of 125 to 127 °C.

In turn, `CC(C)(C)OC(=O)n1cc(CBr)c2ccccc21` registered a melting point of 106 °C. `CC(=O)Nc1cc(Cl)c(F)cc1[N+](=O)[O-]` came in with a melting point of 111 °C. The value for `O=C1NCCN1CCO` was 49 °C. As to `C(=Nc1ccccc1)c1ccccc1`, the melting point worked out at 54 °C. `Cc1cc2ccccc2cc1CBr` registered a melting point of 88 to 102 °C.

Turning to `Cc1n[nH]c(C)c1C`, the melting point lay in the range of 137 to 139 °C. Under `COC(=O)c1ccccc1-n1c(SC)nc2ccccc2c1=O` stands 178 to 180 °C; under `COC(=O)c1ccc(C(=O)OC)c(N)c1`, 132 to 134 °C; under `NC(=O)c1ccc(F)c(Cl)c1`, 146 °C. For `CC(C)C[N+](=O)[O-]`, the melting point is -76.8 °C. Take `COc1ccc(NC(N)=S)c(OC)c1`: the melting point fell in the range of 199 to 201 °C. In turn, `O=CC1=C(Cl)c2cc(F)ccc2OC1` registered a melting point of 84 to 86 °C. Consider `CCCCCCCOC(=O)CCCCC`, for which the melting point was -34.4 °C. In turn, `O=C1NN(c2ccccc2)C(=O)C1=Cc1ccc(Cl)cc1` registered a melting point of 322 °C. Regarding `O=C(C=Cc1ccc(F)cc1)c1ccccc1`, the melting point is 84 to 88 °C.

`Clc1ncc(Br)cn1` yielded a melting point of 79 °C. As for `CC12CCC(C(O)C(C(c3ccccc3)C3C(=O)C4(C)CCC(C3O)C4(C)C)C1=O)C2(C)C` (stereo unspecified), the melting point was 149 °C. Under `COc1cc(C(=O)Oc2ccc(/C=C/C(=O)c3ccccc3)cc2)cc(OC)c1OC` stands 95 °C. On to `CC(O)Cn1c(=O)c2c(ncn2C)n(C)c1=O` (stereo unspecified), for which the melting point stood at 141 °C. For `COc1nsc(Nc2ccc(Cl)cc2)n1`, the melting point lay within 247 to 249 °C. Turning to `C1COCCOCCOCCOCCOCCO1`, the melting point is 39 °C. Regarding `CCOC(=O)[C@H](CCc1ccccc1)N[C@@H](C)C(=O)O`, the melting point was 148 to 153 °C. In turn, `O=C1C(=Cc2ccccc2)SC(=S)N1CNc1cccc([N+](=O)[O-])c1` registered a melting point of 190 °C. The molecule `Brc1cc2c(cc1Br)Oc1ccccc1O2` registered a melting point of 158 °C. Regarding `Cc1cc(NN)nc2c1c(C)nn2C`, the melting point fell in the range of 199 to 205 °C. As to `O=Cc1cccc2c1CCOC2=O`, the melting point was determined as 140 °C.

`O=C(CCc1ccc(O)cc1)c1c(O)cc(O)cc1OC1OC(CO)C(O)C(O)C1O` (stereo unspecified) gave a melting point of 110 °C. On to `CN(C)C(c1ccccc1)c1ccccc1`, for which the melting point is 69 °C. In turn, `CN1C(=O)COc2ccccc21` had a melting point of 59 °C. Molecule `Nc1ccccc1NC1CCN(Cc2ccccc2)CC1` showed a melting point of 111 to 112 °C. In turn, `CC(C)(C)c1cc(C(=O)O)cc(C(C)(C)C)c1` came in with a melting point of 161 °C. `Cn1c(N)nc2ccccc21` displayed a melting point of 203 to 206 °C. In turn, `O=C(NC(Cc1c[nH]c2ccccc12)C(=O)O)OCc1ccccc1` (stereo unspecified) gave a melting point of 124 °C. Turning to `Sc1nnc(-c2cccc3ccccc23)n1Cc1ccco1`, the melting point lay in the range of 177 to 178 °C. With `FC(F)(F)c1cc(C(F)(F)F)[nH]n1`, the melting point fell in the range of 82 to 84 °C. `NS(=O)(=O)c1cc2c(cc1Cl)NC(Cc1ccc(F)cc1)NS2(=O)=O` (stereo unspecified) had a melting point of 239 °C. As to `O=C(c1ccccc1)c1cc(C(=O)c2ccccc2)cc(C(=O)c2ccccc2)c1`, the melting point was 118 °C. Under `C=CCC1(C2C=CCC2)C(=O)NC(=O)NC1=O` (stereo unspecified) stands 140 °C.

`CCCCCCCCOC=O`: the melting point is -39.1 °C.

By melting point is commonly meant the temperature of the solid-liquid transition.
